Reference: article PMC5442318, “Hundreds of dual-stage antimalarial molecules discovered by a functional gametocyte screen” (Nature Communications, 2017)
Read-outs that look alike come from different tables or passages of the source.

Legend:
HepG2 cells = assay: HepG2 cytotoxicity assay; format: cell-based
Outline: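 After compound incubation, plates and CellTiter-Glo reagent were brought to room temperature for 30 min. The reagent was then added, and luminescence was read after a 10 min room-temperature stabilization.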

[1] = system: P. falciparum female gametes; assay: Pf FGAA with compounds added 30 min after triggering gametocyte activation (gamete-targeting); format: cell-based, Plasmodium falciparum NF54; conditions: 0h incubation time
[2] = system: P. falciparum stages IV–V gametocytes; assay: Gametocytocidal ATP-depletion assay (gametocyte ATP bioluminescence); format: cell-based, Plasmodium falciparum
Outline: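 Purified stage IV–V gametocytes (12,500/well) incubated with compound for 48 h at 37 °C under 3% O2/5% CO2. ATP measured by BacTiter-Glo luminescence as a viability surrogate; hits tested at 2 μM single concentration.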

[3] = system: P. falciparum asexual blood stages; conditions: cited from earlier work; for IC50: read-out: Pf Asexual blood stages XC50
[4] = system: P. falciparum stage V female gametocytes; assay: P. falciparum female gametocyte activation assay (Pf FGAA), 24 h or 48 h preincubation, Pfs25 expression readout; format: cell-based, Plasmodium falciparum NF54; conditions: for Pf FGAA classification: SLOW / FAST / GAMETE from activity at 48h, 24h, 0h incubation
Outline: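 Purified stage V gametocytes from P. falciparum NF54 gametocyte cultures were exposed to compounds for 24 h or 48 h at 37 °C under 3% O2/5% CO2, then activated by temperature drop plus xanthurenic acid. Activated females were stained with Cy3-anti-Pfs25 (0.5 μg ml^−1) for 24 h at 26 °C and counted by high-content imaging; pIC50 by nonlinear regression.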

[5] = TCAMS asexual blood stage data, ref 1 (Gamo, F. J. et al., Nature 465, 305-310, 2010)
[6] = TCAMS data, ref 1 (Gamo, F. J. et al., Nature 465, 305-310, 2010)
[7] = 24h incubation time, read-out: Pf FGAA IC50 (µM) 24h
[8] = P. falciparum female gametocytes, mean, read-out: Gametocytes mean Pf FGAA IC50
[9] = TCAMS data, ref 1 (Gamo et al., 2010)
[10] = mean, read-out: Gametocytes mean Pf FGAA IC50

| SMILES | HepG2 cells mean TOX50 (HepG2 cells; HepG2 cells) | IC50 [1] | Gametocytes mean ATP inhibition at 2µM [2] | IC50 [3, 5] | Pf Asexual stages XC50 [3, 6] | IC50 [4, 7] | IC50 [4, 8] | Pf FGAA classification [4] | Selectivity ratio (HepG2 cells; HepG2 TOX50 versus Pf FGAA IC50) | IC50 ([1]; Plasmodium falciparum) | inhibition at 2 µM ([2]; Plasmodium falciparum, mean) | IC50 ([4]; Plasmodium falciparum, 24h incubation time, read-out: Pf FGAA IC50 (µM) 24h) | IC50 ([4]; Plasmodium falciparum, P. falciparum female gametocytes, mean, read-out: Gametocytes mean Pf FGAA IC50) | HepG2 cells mean TOX50 (HepG2 cells) | Gametocytes mean ATP inhibition at 2µM (%) [2] | IC50 [3, 9] | IC50 [4, 10] |
| --- | --- | --- | --- | --- | --- | --- | --- | --- | --- | --- | --- | --- | --- | --- | --- | --- | --- |
| Cc1cccc2nc(-c3ccc(-c4ccc(CNCCN5CCNCC5)cc4)s3)[nH]c12.O=C(O)C(F)(F)F [TCMDC-132870] | 14.29 µM | > 20 µM | 8.76% | 1150 nM | 1150 nM | 18.8 µM | 1.53 µM | SLOW |  |  |  |  |  |  |  |  |  |
| CCc1cc2c(Sc3nnc(N)s3)ncnc2s1 [TCMDC-123993] | 32.30 µM | > 20 µM | 23.86% | 660 nM | 660 nM | 0.77 µM | 0.73 µM | FAST |  |  |  |  |  |  |  |  |  |
| C=CCc1cccc(CN2CCC(c3cc(O)nc(-c4ccccn4)n3)CC2)c1O [TCMDC-124851] | 11.49 µM |  |  | 1100 nM | 1000 nM |  |  | FAST | 6.59 | 2.42 µM | 17.9% | 0.71 µM | 1.74 µM |  |  |  |  |
| O=C(O)C(F)(F)F.O=S(=O)(NCCN1CCCC1)c1ccc(-c2cccc(CNC3Cc4ccccc4C3)c2)s1 [TCMDC-132217] | 5.50 µM | > 20 µM | 18.03% | 750 nM | 750 nM | 5.37 µM | 1.29 µM | SLOW |  |  |  |  |  |  |  |  |  |
| Cc1noc(C)c1-c1ccc2c(Nc3nccc4ccccc34)c(C(N)=O)cnc2c1 [TCMDC-136456] |  | > 20 µM |  |  | 890 nM | 3.33 µM |  | SLOW |  |  |  |  |  | 3.85 µM | 0.55% | 890 nM | 1.54 µM |
| CN1CCC=C(C(=O)NCC(C)(C)c2nc(-c3ccc(Cl)c(O)c3)c(-c3ccncc3)[nH]2)C1.Cl [TCMDC-140700] |  | 1.61 µM |  |  | 1000 nM | 4.68 µM |  | GAMETE |  |  |  |  |  | 13.36 µM | -6.01% | 1000 nM | 1.91 µM |
| CCN(CC)CCN(Cc1ccc(-c2ccc(Cl)cc2)cc1)C(=O)Cn1cc(CN(C)C)c(=O)nc1SCc1ccc(F)cc1 [TCMDC-140406] |  | > 20 µM |  |  | 750 nM | 9.4 µM |  | SLOW |  |  |  |  |  | 6.61 µM | -10.76% | 750 nM | 1.38 µM |
| CCn1c(-c2nonc2N)nc2c(-c3cccc(NC(=O)Nc4ccc(Cl)cc4)c3)ncc(OCCCN)c21.O=C(O)C(F)(F)F [TCMDC-136152] |  | > 20 µM |  |  | 830 nM | 6.65 µM |  | SLOW |  |  |  |  |  | 10.96 µM | -4.09% | 830 nM | 1.7 µM |
| O=C(O)C(F)(F)F.O=c1[nH]ccc2nc(N[C@@H]3CCNC3)nc(Nc3cc(Cl)cc(Cl)c3)c12 [TCMDC-135052] | 4.79 µM | 15.1 µM | -43.72% | 740 nM | 740 nM | 2.57 µM | 0.74 µM | SLOW |  |  |  |  |  |  |  |  |  |
| Cc1ccc2c(c1)c(C1CCN(C(=O)c3ccc([N+](=O)[O-])o3)CC1)cn2C [TCMDC-124787] | 28.85 µM | > 20 µM | -6.61% | 750 nM | 750 nM | 0.88 µM | 2.12 µM | FAST |  |  |  |  |  |  |  |  |  |
| CNCC(C)(C)c1nc(-c2ccc(Cl)c(O)c2)c(-c2ccncc2)[nH]1.Cl [TCMDC-140762] |  | 0.61 µM |  |  | 740 nM | 1.06 µM |  | GAMETE |  |  |  |  |  | 13.52 µM | -1.34% | 740 nM | 0.88 µM |
